Experimental data as given in patent US10239832B2, “N-(1-hydroxy-3-(pyrrolidinyl)propan-2-yl)pyrrolidine-3-carboxamide derivatives as glucosylceramide synthase inhibitors” (BIOMARIN PHARMACEUTICAL INC., priority 2013, dated 2019).

These molecules were tested against T1, GCS (Canis lupus familiaris, UniProt A0A8I3MXG6) (assay: GCS enzymatic assay (MDCK cell lysate, NBD-ceramide to glucosylceramide, LC/MS)). Conditions: Table 2; class symbols A, B, C; the table does not say which of the assays; read-out: Data Range (IC50 values).
T1 construct: endogenous in cells; host or cells: MDCK (Madin-Darby canine kidney) cells, whole-cell lysate
T1 sequence (A0A8I3MXG6 1-394): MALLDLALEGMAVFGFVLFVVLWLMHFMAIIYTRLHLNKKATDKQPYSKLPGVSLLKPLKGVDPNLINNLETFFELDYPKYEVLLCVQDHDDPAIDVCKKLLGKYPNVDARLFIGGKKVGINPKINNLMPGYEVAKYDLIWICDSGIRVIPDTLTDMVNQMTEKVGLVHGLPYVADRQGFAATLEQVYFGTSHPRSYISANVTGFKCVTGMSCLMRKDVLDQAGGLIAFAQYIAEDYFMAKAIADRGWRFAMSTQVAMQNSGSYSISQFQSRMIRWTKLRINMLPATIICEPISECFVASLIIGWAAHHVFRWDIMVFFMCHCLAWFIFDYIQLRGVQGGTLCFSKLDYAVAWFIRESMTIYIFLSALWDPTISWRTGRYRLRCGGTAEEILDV
Assay type: biochemical, canine
Method: This assay was modified based on the study by Larsen et al. (J. Lipid Res. 2011, 53, 282). Madin-Darby canine kidney (MDCK) cell lysate was prepared using M-PER Mammalian Protein Extraction Reagent (Thermal Scientific) in the presence of a protease inhibitor cocktail (Roche). Protein concentration was determined using BCA assay kit (Pierce). […] 0.1% DMSO was used as mock treatment or control. The reaction was terminated by adding 100 μL acetonitrile solution and subjected to LC/MS analysis.
The quantitative analysis of NBD-Ceramide and glucosylceramide was performed on a Shimadzu ultra-fast liquid chromatography (Shimadzu, Japan) coupled with API 4000 triple quadrupole mass spectrometer (Applied Biosystems, Concord, Ontario, Canada). Sample separation was conducted on a Waters Xbridge™ BEH130 C18, 100 mm×4.6 mm i.d, 3.5 μm (Milford, Mass., USA). The mobile phase consisted of water and acetonitrile supplemented with 0.1% formic acid (v/v). The flow rate was 1.0 mL/min. The initial mobile phase was 20% acetonitrile and was ramped in a linear fashion to 50% acetonitrile in 0.4 min. From 0.4 to 1.5 min, the gradient was ramped to 98% acetonitrile, and then was held at […] until 8.0 min. Acetonitrile was reset to 20% in 1.5 min, and maintained until 10.0 min. The total run time was 10.0 min. The MS/MS detection was performed in ESI positive mode. The mass transition of NBD-Ceramide was m/z 576.36→558.40 under the collision energy of 15 V, and the mass transition of glucosylceramide was m/z 738.35→558.40 under 21V collision energy. The cell lysate was diluted with equal volume of acetonitrile. Aliquots of 50 μL diluted samples were added to 1.5 mL tubes, and 100 μL of acetonitrile containing internal standard (100 ng/mL tolbutamide) were added for protein precipitation. The mixture were vortexed and then centrifuged at 13000 rpm for 10 min. 70 μL of supernatant were mixed with 140 μL of H2O and the final solution were injected for LC/MS/MS analysis and IC50's and/or percent inhibitions calculated.

Row | SMILES | IC50
1 | Cn1ncc2ccc(N3CCC(C(=O)N[C@H](CN4CCCC4)[C@H](O)c4ccc5c(c4)OCCO5)C3)cc21 (stereo partly drawn) [Compound 61C, N-((1R,2R)-1-(2,3-dihydrobenzo[b][1,4]dioxin-6-yl)-1-hydroxy-3-(pyrrolidin-1-yl)propan-2-yl)-1-(1-methyl-1H-indazol-6-yl)pyrrolidine-3-carboxamide] | 1 to 30 nM
2 | O=C(N[C@H](CN1CCCC1)[C@H](O)c1ccc(OC2CC2)c(F)c1)[C@@H]1CCN(c2ccc(Cl)cc2)C1 [Compound 65, (R)-1-(4-chlorophenyl)-N((1R,2R)-1-(4-cyclopropoxy-3-fluorophenyl)-1-hydroxy-3-(pyrrolidin-1-yl)propan-2-yl)pyrrolidine-3-carboxamide] | 1 to 30 nM
3 | O=C(N[C@H](CN1CCC1)[C@H](O)c1ccc2c(c1)OCCO2)[C@@H]1CCN(c2ccc3cc(F)ccc3c2)C1 [Compound 79, (R)-N-((1R,2R)-3-(azetidin-1-yl)-1-(2,3-dihydrobenzo[b][1,4]dioxin-6-yl)-1-hydroxypropan-2-yl)-1-(6-fluoronaphthalen-2-yl)pyrrolidine-3-carboxamide] | 1 to 30 nM
4 | O=C(N[C@H](CN1CCCC1)[C@H](O)c1cc(F)c2c(c1)OCCO2)[C@@H]1CCN(c2ccc(Cl)c(Oc3ccccn3)c2)C1 [Compound 105, (R)-1-(4-chloro-3-(pyridin-2-yloxy)phenyl)-N-((1R,2R)-1-(8-fluoro-2,3-dihydrobenzo[b][1,4]dioxin-6-yl)-1-hydroxy-3-(pyrrolidin-1-yl)propan-2-yl)pyrrolidine-3-carboxamide] | 1 to 30 nM
5 | O=C(N[C@H](CN1CCCC1)[C@H](O)c1cc(F)c2c(c1)OCCO2)[C@@H]1CCN(c2ccc(Cl)c(-c3ccc(F)cc3)n2)C1 [Compound 144, (R)-1-(5-chloro-6-(4-fluorophenyl)pyridin-2-yl)-N((1R,2R)-1-(8-fluoro-2,3-dihydrobenzo[b][1,4]dioxin-6-yl)-1-hydroxy-3-(pyrrolidin-1-yl)propan-2-yl)pyrrolidine-3-carboxamide] | 1 to 30 nM
6 | O=C(N[C@H](CN1CCCC1)[C@H](O)c1cc(F)c2c(c1)OCCO2)[C@@H]1CCN(c2ccc3ccccc3n2)C1 [Compound 68, (R)-N-((1R,2R)-1-(8-fluoro-2,3-dihydrobenzo[b][1,4]dioxin-6-yl)-1-hydroxy-3-(pyrrolidin-1-yl)propan-2-yl)-1-(quinolin-2-yl)pyrrolidine-3-carboxamide] | 1 to 30 nM
7 | C=COc1ccc([C@@H](O)[C@@H](CN2CCCC2)NC(=O)[C@@H]2CCN(c3ccc(Cl)cc3)C2)cc1Cl [Compound 147, (R)-N-((1R,2R)-1-(3-chloro-4-(vinyloxy)phenyl)-1-hydroxy-3-(pyrrolidin-1-yl)propan-2-yl)-1-(4-chlorophenyl)pyrrolidine-3-carboxamide] | 1 to 30 nM

Same assay, conditions: Table 2; class symbols D, E, F, NA (not active); the table does not say which of the assays

Row | SMILES | Data Range (% inhibition)
8 | O=C(N[C@H](CN1CCCC1)[C@H](O)c1ccc2c(c1)OCCO2)[C@@H]1CCN(c2nccs2)C1 [Compound 17, (R)-N-((1R,2R)-1-(2,3-dihydrobenzo[b][1,4]dioxin-6-yl)-1-hydroxy-3-(pyrrolidin-1-yl)propan-2-yl)-1-(thiazol-2-yl)pyrrolidine-3-carboxamide] | E (50-74% (or less than 75%))
9 | O=C(N[C@H](CN1CCCC1)[C@H](O)c1ccc(OC2CC2)nc1)[C@H]1CCN(c2ccc(Cl)cc2)C1 [Compound 13C, (S)-1-(4-chlorophenyl)-N-((1R,2R)-1-(6-cyclopropoxypyridin-3-yl)-1-hydroxy-3-(pyrrolidin-1-yl)propan-2-yl)pyrrolidine-3-carboxamide] | F (1-49% (or less than 50%))
10 | O=C(N[C@H](CN1CCCC1)[C@H](O)c1ccc2c(c1)OCCO2)C1CCN(c2ccc3ccccc3n2)C1 (stereo partly drawn) [Compound 72A, N-((1R,2R)-1-(2,3-dihydrobenzo[b][1,4]dioxin-6-yl)-1-hydroxy-3-(pyrrolidin-1-yl)propan-2-yl)-1-(quinolin-2-yl)pyrrolidine-3-carboxamide] | D (75-100%)
11 | O=C(N[C@H](CN1CCCC1)[C@H](O)c1ccc2c(c1)OCCO2)[C@@H]1CCN(c2ccc3cc(F)ccc3c2Cl)C1 [Compound 88, (R)-1-(1-chloro-6-fluoronaphthalen-2-yl)-N-((1R,2R)-1-(2,3-dihydrobenzo[b][1,4]dioxin-6-yl)-1-hydroxy-3-(pyrrolidin-1-yl)propan-2-yl)pyrrolidine-3-carboxamide] | D (75-100%)
12 | CC(C)Oc1ccc(C(O)[C@@H](CN2CCCC2)NC(=O)[C@H]2CCN(c3ccc(F)cc3)C2)cn1 (stereo in doubt) [Compound 31B, (S)-1-(4-fluorophenyl)-N-((1S,2R)-1-hydroxy-1-(6-isopropoxypyridin-3-yl)-3-(pyrrolidin-1-yl)propan-2-yl)pyrrolidine-3-carboxamide] | E (50-74% (or less than 75%))
13 | O=C(N[C@H](CN1CCCC1)[C@H](O)c1ccc(OC2CC2)c(Cl)c1)C1CCN(c2ccc(OC(F)(F)F)cc2)C1 (stereo partly drawn) [Compound 10, N-((1R,2R)-1-(3-chloro-4-cyclopropoxyphenyl)-1-hydroxy-3-(pyrrolidin-1-yl)propan-2-yl)-1-(4-(trifluoromethoxy)phenyl)pyrrolidine-3-carboxamide] | D (75-100%)
14 | O=C(N[C@H](CN1CCCC1)[C@H](O)c1ccc2c(c1)OCCO2)C1CCN(c2ccc(Cl)cc2Cl)C1 (stereo in doubt) [Compound 12D, (S)-1-(2,4-dichlorophenyl)-N-((1R,2R)-1-(2,3-dihydrobenzo[b][1,4]dioxin-6-yl)-1-hydroxy-3-(pyrrolidin-1-yl)propan-2-yl)pyrrolidine-3-carboxamide] | F (1-49% (or less than 50%))
15 | O=C(N[C@H](CN1CCCC1)[C@H](O)c1ccc2c(c1)OCCO2)C1CCN(C2Cc3ccccc3C2)C1 (stereo partly drawn) [Compound 55A, 1-(2,3-dihydro-1H-inden-2-yl)-N-((1R,2R)-1-(2,3-dihydrobenzo[b][1,4]dioxin-6-yl)-1-hydroxy-3-(pyrrolidin-1-yl)propan-2-yl)pyrrolidine-3-carboxamide] | F (1-49% (or less than 50%))
16 | O=C(N[C@H](CN1CCCC1)[C@H](O)c1ccc2c(c1)OCCO2)[C@H]1CCN(CCc2ccc(Cl)cc2)C1 [Compound 21F, (S)-1-(4-chlorophenethyl)-N-((1R,2R)-1-(2,3-dihydrobenzo[b][1,4]dioxin-6-yl)-1-hydroxy-3-(pyrrolidin-1-yl)propan-2-yl)pyrrolidine-3-carboxamide] | F (1-49% (or less than 50%))
17 | O=C(N[C@H](CN1CCCC1)[C@H](O)c1ccc2c(c1)OCCO2)[C@@H]1CCN(c2ccc(Cl)cn2)C1 [Compound 28, (R)-1-(5-chloropyridin-2-yl)-N((1R,2R)-1-(2,3-dihydrobenzo[b][1,4]dioxin-6-yl)-1-hydroxy-3-(pyrrolidin-1-yl)propan-2-yl)pyrrolidine-3-carboxamide] | E (50-74% (or less than 75%))
18 | O=C(N[C@H](CN1CCCC1)[C@H](O)c1ccc(OCC(F)(F)F)nc1)[C@H]1CCN(c2ccc(F)cc2)C1 [Compound 34A, (S)-1-(4-fluorophenyl)-N-((1R,2R)-1-hydroxy-3-(pyrrolidin-1-yl)-1-(6-(2,2,2-trifluoroethoxy)pyridin-3-yl)propan-2-yl)pyrrolidine-3-carboxamide] | NA (not active—a negative value was generated for % inhibition)
19 | O=C(N[C@H](CN1CCCC1)[C@H](O)c1ccc2c(c1)OCCO2)C1CCN(c2ccc3cc(F)ccc3c2Cl)C1 (stereo partly drawn) [Compound 88C, 1-(1-chloro-6-fluoronaphthalen-2-yl)-N-((1R,2R)-1-(2,3-dihydrobenzo[b][1,4]dioxin-6-yl)-1-hydroxy-3-(pyrrolidin-1-yl)propan-2-yl)pyrrolidine-3-carboxamide] | D (75-100%)
20 | O=C(N[C@H](CN1CCCC1)[C@H](O)c1ccc2c(c1)OCCO2)[C@@H]1CCN(c2nc3c(s2)CCCC3)C1 [Compound 36, (R)-N-((1R,2R)-1-(2,3-dihydrobenzo[b][1,4]dioxin-6-yl)-1-hydroxy-3-(pyrrolidin-1-yl)propan-2-yl)-1-(4,5,6,7-tetrahydrobenzo[d]thiazol-2-yl)pyrrolidine-3-carboxamide] | F (1-49% (or less than 50%))
